From PubChem BioAssay (NCI)
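Where inhibition never reached the appropriate level, the endpoint shown equals the highest concentration tested. Otherwise, values were interpolated linearly from a five-concentration, 48-hour dose response in 96-well plates. The concentration for 50% growth inhibition is given as GI50. TGI denotes the concentration required for complete inhibition of growth.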

Tests used:
Test in all cases: NCI tumour cell line growth inhibition, 48 h
[1] = test system: 786-0 renal
[2] = test system: A498 renal
[3] = test system: A549 NSCLC
[4] = test system: ACHN renal
[5] = test system: BT-549 breast
[6] = test system: CAKI-1 renal
[7] = test system: CCRF-CEM leukemia
[8] = test system: DU-145 prostate
[9] = test system: EKVX NSCLC
[10] = test system: HCC-2998 colon
[11] = test system: HCT-116 colon
[12] = test system: HCT-15 colon
[13] = test system: HL-60(TB) leukemia
[14] = test system: HOP-62 NSCLC
[15] = test system: HS 578T breast
[16] = test system: HT29 colon
[17] = test system: IGROV1 ovarian
[18] = test system: K-562 leukemia
[19] = test system: KM12 colon
[20] = test system: LOX IMVI melanoma
[21] = test system: M14 melanoma
[22] = test system: MALME-3M melanoma
[23] = test system: MCF7 breast
[24] = test system: MDA-MB-231 breast
[25] = test system: MDA-MB-435
[26] = test system: MOLT-4 leukemia
[27] = test system: NCI-H226 lung
[28] = test system: NCI-H23 lung
[29] = test system: NCI-H460 lung
[30] = test system: NCI-H522 lung
[31] = test system: NCI/ADR-RES ovarian
[32] = test system: OVCAR-4 ovarian
[33] = test system: OVCAR-5 ovarian
[34] = test system: OVCAR-8 ovarian
[35] = test system: PC-3 prostate
[36] = test system: RPMI-8226 leukemia
[37] = test system: SF-268 CNS
[38] = test system: SF-295 CNS
[39] = test system: SF-539 CNS
[40] = test system: SK-MEL-2 melanoma
[41] = test system: SK-MEL-28 melanoma
[42] = test system: SK-MEL-5 melanoma
[43] = test system: SK-OV-3 ovarian
[44] = test system: SN12C renal
[45] = test system: SNB-19 CNS
[46] = test system: SNB-75 CNS
[47] = test system: SR leukemia
[48] = test system: SW-620 colon
[49] = test system: T-47D breast
[50] = test system: TK-10 renal
[51] = test system: U251 CNS
[52] = test system: UACC-257 melanoma
[53] = test system: UACC-62 melanoma
[54] = test system: UO-31 renal

COc1cc(-c2nnc(SCc3ccc(O)c4ncccc34)n2-c2ccccc2)cc(OC)c1OC
GI50 [1]: 498 nM | TGI [1]: > 20900 nM | GI50 [2]: 320 nM | TGI [2]: 2320 nM | GI50 [3]: 412 nM | TGI [3]: > 100000 nM | GI50 [4]: 285 nM | TGI [4]: > 100000 nM | GI50 [5]: 178 nM | TGI [5]: > 26000 nM | GI50 [6]: 274 nM | TGI [6]: > 100000 nM | GI50 [7]: 188 nM | TGI [7]: > 100000 nM | GI50 [8]: 273 nM | TGI [8]: > 100000 nM | GI50 [9]: 367 nM | TGI [9]: > 100000 nM | GI50 [10]: 447 nM | TGI [10]: > 100000 nM | GI50 [11]: 97.9 nM | TGI [11]: > 40300 nM | GI50 [12]: 53 nM | TGI [12]: > 100000 nM | GI50 [13]: 276 nM | GI50 [14]: 261 nM | GI50 [15]: 161 nM | GI50 [16]: 2040 nM | TGI [16]: > 100000 nM | GI50 [17]: 272 nM | TGI [17]: > 100000 nM | GI50 [18]: 83 nM | TGI [18]: > 100000 nM | GI50 [19]: 336 nM | TGI [19]: > 100000 nM | GI50 [20]: 180 nM | TGI [20]: 4440 nM | GI50 [21]: 386 nM | TGI [21]: 2420 nM | GI50 [22]: 336 nM | TGI [22]: > 20600 nM | GI50 [23]: 37.7 nM | TGI [23]: > 100000 nM | GI50 [24]: 390 nM | TGI [24]: > 100000 nM | GI50 [25]: 194 nM | TGI [25]: > 100000 nM | GI50 [26]: 294 nM | TGI [26]: > 100000 nM | GI50 [27]: 359 nM | TGI [27]: > 100000 nM | GI50 [28]: 75.7 nM | TGI [28]: > 100000 nM | GI50 [29]: 50 nM | TGI [29]: 2030 nM | GI50 [30]: 86.3 nM | TGI [30]: 921 nM | GI50 [31]: 67.8 nM | TGI [31]: > 100000 nM | GI50 [32]: 400 nM | TGI [32]: > 100000 nM | GI50 [33]: 668 nM | TGI [33]: > 100000 nM | GI50 [34]: 102 nM | TGI [34]: > 100000 nM | GI50 [35]: 87.4 nM | TGI [35]: > 100000 nM | GI50 [36]: 190 nM | TGI [36]: > 100000 nM | GI50 [37]: 218 nM | TGI [37]: > 100000 nM | GI50 [38]: 200 nM | TGI [38]: > 100000 nM | GI50 [39]: 262 nM | GI50 [40]: 197 nM | TGI [40]: 626 nM | GI50 [41]: 367 nM | TGI [41]: > 100000 nM | GI50 [42]: 207 nM | TGI [42]: 899 nM | GI50 [43]: 302 nM | TGI [43]: 23500 nM | GI50 [44]: 211 nM | TGI [44]: > 100000 nM | GI50 [45]: 128 nM | TGI [45]: > 100000 nM | GI50 [46]: 229 nM | TGI [46]: > 20200 nM | GI50 [47]: 140 nM | TGI [47]: > 100000 nM | GI50 [48]: 158 nM | TGI [48]: > 100000 nM | GI50 [49]: 71.2 nM | TGI [49]: > 100000 nM | GI50 [50]: 291 nM | TGI [50]: > 100000 nM | GI50 [51]: 66 nM | TGI [51]: > 100000 nM | GI50 [52]: 342 nM | TGI [52]: 3220 nM | GI50 [53]: 331 nM | TGI [53]: 2340 nM | GI50 [54]: 113 nM | TGI [54]: 991 nM
